The values that follow come from patent US7556938B1, “Nucleic acids encoding potassium channel interactors” (Millennium Pharmaceuticals, Inc., priority 1998, dated 2009).

Experiment [1] has as its target T1, Kv1.1/Kvβ1 (Rattus norvegicus, UniProt P10499).
T1 construct: expressed in transfected cells; host or cells: Xenopus oocytes
In words: AA modulation of Kv1.1/Kvβ1 current in Xenopus oocytes. To be noted: Kv1.1/Kvβ1, 10 μM AA, listed as AA. In kind it is cell-based. The procedure:
Frogs underwent no more than two surgeries and surgeries were performed by well established techniques. Frogs were anesthetized with ice. Total cRNA (1-10 ng) was injected into stage IV Xenopus oocytes that were harvested the previous day. The Xenopus oocytes were incubated in ND96 containing (in mM) 96 NaCl, 2 KCl, 1.8 CaCl2, 1 MgCl2, 5 HEPES, pH 7.6, plus (Gentamycin 50 μg/ml) at 18° C. Xenopus oocytes were studied 3-7 days after injection. The two-electrode voltage-clamp recordings were performed in ND96 solution using a TURBO TEC 03 Clamp Amplifier (ALA Scientific Instruments, Westbury, N.Y.). Both electrodes were filled with 3 M KCl and had electrode resistances ranging from 0.2-1 MOhm. The current signals were filtered at 1000 Hz before transferred on a PC (Gateway, Calif.) using the PULSE software (HEKA, Germany).
In this example, the foregoing was tested by measuring two alpha/auxiliary complexes: Kv4.3/KChIP1 and Kv1.1/Kvβ1. (Kvβ1, which is one of the classic potassium channel beta subunits, dramatically changes Kv1.1 kinetics). Kv4.3/KChIP and Kv1.1/Kvβ1 were expressed respectively in Xenopus oocytes and their resulting currents were recorded in the presence or absence of […] AA. […] Kinetically, […] was much more sensitive to AA modulation than was Kv1.1/Kvβ1 (Table 4).

In experiment [2] the test system is Kv4 α subunits. Particulars: in oocytes; Villarroel and Schwarz (1996); read-out: IC50 of arachidonic acid on Kv4 α subunits; cited from earlier work.
For experiment [3], the system named is A-current in cultured primary cerebellar granule neurons. The experiment is described as follows: Arachidonic acid effects on the A-current in cultured primary cerebellar granule neurons. Particulars: 10 μM arachidonic acid, TEA (10 mM) applied, mean±SEM. It is filed as cell-based. On the procedure: The arachidonic acid effects on the A-current were also investigated in a neuronal system (cultured primary cerebellar granule neurons) where both Kv4 and KChIPs are present. TEA (10 mM) was applied to block a small sustained outward component. Inactivation time constants of the A current in the absence and presence of 10 μM arachidonic acid were 44±5 ms and 21±3 ms (mean±SEM), respectively. The corresponding peak amplitude was reduced from 2.0±0.6 nA to 1.2±0.4 nA.

The test system of experiment [4] is Kv4.3. In words: Fatty acid modulation of Kv4.3 current (Kv4.3 alone) in Xenopus oocytes. It is filed as cell-based, rat. On the procedure:
(§1) Frogs underwent no more than two surgeries and surgeries were performed by well established techniques. Frogs were anesthetized with ice. Total cRNA (1-10 ng) was injected into stage IV Xenopus oocytes that were harvested the previous day. The Xenopus oocytes were incubated in ND96 containing (in mM) 96 NaCl, 2 KCl, 1.8 CaCl2, 1 MgCl2, 5 HEPES, pH 7.6, plus (Gentamycin 50 μg/ml) at 18° C. Xenopus oocytes were studied 3-7 days after injection. The two-electrode voltage-clamp recordings were performed in ND96 solution using a TURBO TEC 03 Clamp Amplifier (ALA Scientific Instruments, Westbury, N.Y.). Both electrodes were filled with 3 M KCl and had electrode resistances ranging from 0.2-1 MOhm. The current signals were filtered at 1000 Hz before transferred on a PC (Gateway, Calif.) using the PULSE software (HEKA, Germany). In this Example, the hypothesis that […] were the missing auxiliary subunits that accounted for the above kinetic discrepancy was investigated by expressing Kv4 alone or together with […] in both CHO cells and Xenopus oocytes, and measuring their inactivation time constants (using art known techniques as described in, for example, An et al. (2000) Nature 403:553-6; Keros, S. and […]. Neuroscience 17: 3476-87; and Villarroel, A. and […]. Neuroscience 16:2522-32). The effects of different concentrations of arachidonic acid on Kv4/KChIP current was studied in Xenopus oocytes. Because the physiological concentrations of arachidonic acid are often under 10 μM (Needleman, et al., 1986 Annu Rev Biochem 55:69-102; Anderson and Welsh, 1990, Proc Natl Acad Sci USA 87:7334-8; Meves, 1994, Prog Neurobiol 43:175-86), arachidonic acid was tested in the 1-10 μM range. […] Further, the slope of amplitude reduction as a function of increasing concentrations was very similar with or without the presence of […]. […] Villarroel and Schwarz, (1996) J.

The target in experiment [5] is T2, Kv4.3/KChIP1 (Rattus norvegicus, UniProt Q62897).
T2 sequence (Q62897 1-655): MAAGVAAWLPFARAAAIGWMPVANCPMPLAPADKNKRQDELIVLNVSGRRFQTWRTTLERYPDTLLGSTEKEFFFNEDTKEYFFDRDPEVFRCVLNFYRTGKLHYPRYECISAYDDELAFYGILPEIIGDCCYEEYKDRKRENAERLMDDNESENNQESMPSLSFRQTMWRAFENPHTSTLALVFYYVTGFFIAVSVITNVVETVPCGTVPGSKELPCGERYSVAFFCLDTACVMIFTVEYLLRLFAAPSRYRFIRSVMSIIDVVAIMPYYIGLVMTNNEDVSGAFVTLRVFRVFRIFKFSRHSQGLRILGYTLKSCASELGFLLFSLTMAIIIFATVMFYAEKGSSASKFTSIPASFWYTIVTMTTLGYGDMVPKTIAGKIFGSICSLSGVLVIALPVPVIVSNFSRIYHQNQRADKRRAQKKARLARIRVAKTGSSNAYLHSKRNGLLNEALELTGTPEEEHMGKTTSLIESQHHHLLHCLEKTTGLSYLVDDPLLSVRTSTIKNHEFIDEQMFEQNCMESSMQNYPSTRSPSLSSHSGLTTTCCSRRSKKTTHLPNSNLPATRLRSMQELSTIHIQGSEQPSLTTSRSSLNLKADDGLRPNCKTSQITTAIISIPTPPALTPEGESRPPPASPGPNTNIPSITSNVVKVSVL
T2 sequence (Q8R426 1-216 isoform Q8R426-2 partner): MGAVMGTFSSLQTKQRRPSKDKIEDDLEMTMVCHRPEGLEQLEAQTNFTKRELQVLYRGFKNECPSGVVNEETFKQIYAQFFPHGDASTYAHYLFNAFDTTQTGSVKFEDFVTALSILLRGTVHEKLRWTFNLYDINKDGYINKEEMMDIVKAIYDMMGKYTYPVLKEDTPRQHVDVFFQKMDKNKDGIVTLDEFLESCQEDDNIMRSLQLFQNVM
In words: Fatty acid modulation of Kv4.3/KChIP1 current in Xenopus oocytes. It is filed as cell-based. On the procedure:
as §1

[6] abbreviates: Kv4.3/KChIP1, 10 μM AA, listed as AA.

T1 sequence (P10499 whole entry): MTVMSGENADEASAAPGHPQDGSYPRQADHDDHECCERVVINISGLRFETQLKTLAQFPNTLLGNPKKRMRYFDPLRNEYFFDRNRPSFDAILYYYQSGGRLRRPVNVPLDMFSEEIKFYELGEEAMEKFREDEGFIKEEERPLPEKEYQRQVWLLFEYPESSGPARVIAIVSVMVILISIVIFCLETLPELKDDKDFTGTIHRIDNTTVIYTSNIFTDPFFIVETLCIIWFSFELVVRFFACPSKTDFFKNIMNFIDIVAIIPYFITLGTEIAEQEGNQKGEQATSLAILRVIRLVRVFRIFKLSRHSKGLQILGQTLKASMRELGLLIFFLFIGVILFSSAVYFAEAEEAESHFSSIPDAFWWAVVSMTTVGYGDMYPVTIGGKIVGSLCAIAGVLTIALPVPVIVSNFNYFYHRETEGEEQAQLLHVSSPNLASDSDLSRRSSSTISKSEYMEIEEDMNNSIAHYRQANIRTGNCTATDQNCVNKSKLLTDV

With `CCCCC/C=C\C/C=C\C/C=C\C/C=C\CCCC(=O)O` [arachidonic acid], the “Inactivation time constant (ms ± SEM)” value is 9 ± 1 ms in experiment [1]; 66 ± 6 ms in experiment [4] (Kv4.3 alone, 10 μM AA); 55 ± 4 ms in experiment [5] (setting [6]). In addition, the “Peak amplitude (μA ± SEM)” value in experiment [1] is reported as 14±1 μA; in experiment [4] (Kv4.3 alone, 10 μM AA), 13 ± 1 μA; in experiment [5] (setting [6]) it was 21±4 μA. Further, the half-inhibitory concentration (IC50) in experiment [2] was ~8 µM. Also, the “Inactivation time constant of the A current” value in experiment [3] stood at 21 ± 3 ms. For the same molecule, the “peak amplitude of the A current” value in experiment [3] is 1.2±0.4 nA. Moreover, the “block of Kv4.3 peak amplitude” value in experiment [4] (Kv4.3 alone, 10 μM fatty acid, vs no-fatty acid control) is “inhibited significantly”; in experiment [4] (Kv4.3 alone, 1-10 μM arachidonic acid) it was “concentration-dependent block”; in experiment [5] (Kv4.3/KChIP1, 10 μM fatty acid, vs no-fatty acid control), “inhibited significantly”; in experiment [5] (Kv4.3/KChIP1, 1-10 μM arachidonic acid), “concentration-dependent block”. The “effect on inactivation time constant” value is on record as “unchanged at all arachidonic acid concentrations tested” in experiment [4] (absence of KChIP1, 1-10 μM arachidonic acid) and “decreased in a concentration-dependent manner” in experiment [5] (presence of KChIP1, 1-10 μM arachidonic acid). Moreover, in experiment [5] (Kv4.3 co-expressed with KChIP1, 10 μM fatty acid), the “effect on Kv4.3 inactivation time constant” value is “reduced Kv4.3 inactivation time constant”.

As a reminder, the IC50 is the concentration at which inhibition is half-maximal.
